Results taken from patent US20050234652A1, “Nuclear magnetic resonance-docking of compounds” (Triad Therapeutics, Inc., priority 2001, published 2005).

Target: T1, DHPR (Escherichia coli, UniProt P04036)
T1 construct: made in house; host or cells: E. coli BL21 (DE3) Gold
Assay: binding of ligands to DHPR (dissociation constants)
Set-up: species or system E. coli
Description: The resonance assignments for DHPR residues Thr80, Thr104 and Met17 were obtained as follows. Differential chemical shift perturbation was observed by comparing the spectra of MIT-DHPR bound to 2,6-pyridinedicarboxylate (PDC) and the spectra of MIT-DHPR bound to 4-Cl PDC. Distinct changes in chemical shift for only one of the methionine ^13C^ε/^1H^ε resonances was detected, which therefore identified the signals as being associated with M17 as shown in FIG. 1D. Both PDC and 4-Cl PDC bound to DHPR with micromolar dissociation constants, so that, at the concentrations used, the protein was saturated in both samples. Therefore, the resultant chemical shift differences originate solely from the small perturbation introduced by binding slightly different ligands. Similarly, resonance assignments were obtained for residues T104 and […] with differential chemical shifts comparing spectra obtained for complexes formed with NADH and 3-acetyl pyridine NADH.

T1 sequence (P04036 whole entry): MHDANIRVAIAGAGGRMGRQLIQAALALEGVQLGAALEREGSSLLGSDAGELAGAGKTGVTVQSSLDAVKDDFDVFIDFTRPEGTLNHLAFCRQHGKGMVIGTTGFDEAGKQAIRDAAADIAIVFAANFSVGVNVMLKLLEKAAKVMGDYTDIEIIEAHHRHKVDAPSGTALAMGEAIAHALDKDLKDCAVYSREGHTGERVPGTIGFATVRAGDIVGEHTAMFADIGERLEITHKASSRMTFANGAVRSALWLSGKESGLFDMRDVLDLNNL

Compound | dissociation constants
O=C(O)c1cc(Cl)cc(C(=O)O)n1 [4-Cl PDC] | micromolar
O=C(O)c1cccc(C(=O)O)n1 [PDC, 2,6-pyridinedicarboxylate] | micromolar
